Laboratory results reported in a melting point compilation (Tetko et al.; mined from patent text by program, amines drawn as free bases though some values may be those of a salt).

| melting point | SMILES |
| --- | --- |
| 156 to 159 °C | Cn1c(=S)n(C)c(=O)n(-c2ccc(F)cc2F)c1=O |
| 292 to 293 °C | O=[N+]([O-])c1[nH]c(-c2c(Cl)cc(C(F)(F)F)cc2Cl)nc1Br |
| 216 to 217 °C | CNc1nc(Cl)nc2cc(OC)c(OC)cc12 |
| 93 °C | Cc1ccc2nc(-c3ccccc3)oc2c1 |
| 99 to 100 °C | CCOc1cccc(-c2cc3n(n2)-c2ccccc2CC3)c1 |
| 172 to 175 °C | C=C(C)CNc1cc(Cl)nnc1Cl |
| 128 to 132 °C | COc1cc(NC(C)=O)c2c3c(c4ccccc4nc13)C=CN2 |
| 115 to 117 °C | CC(C)(C)OC(=O)N1CCC(Oc2ccc(C#N)c(/C=C/N3CCCC3)c2)CC1 |
| 121 to 123 °C | CCOC(=O)CCc1cccc(-c2c(CC(=O)Nc3ccc(F)cc3C(F)(F)F)c(=O)oc3cc(Cl)c(C)cc23)c1 |
| 161 °C | COc1ccc(OC)c(P(=O)(C(=O)c2c(C)cc(C)cc2C)C(=O)c2c(C)cc(C)cc2C)c1 |
| 240 °C | Cc1nc(NC(=O)c2ccccc2)n(C)c(=O)c1CCN1CCC(=C(c2ccc(F)cc2)c2ccc(F)cc2)CC1 |
| 74.6 °C | CCCCCCCCOc1ccc(-c2ncc(Br)cn2)c(F)c1F |
| 34 to 35 °C | COC(=O)C(=O)Oc1c(F)c(F)c(F)c(F)c1F |
| 122 to 124 °C | CC(C)=CCC/C(C)=C/CSc1nc2cc(F)c(Cl)cc2[nH]1 |
| 249 to 251 °C | Cc1cc(-c2nnc3c4ccccc4c(OCc4ncn(C)n4)nn23)no1 |
| 141 to 142 °C | COc1ccc(-c2cc3ccc(C#N)cc3o2)cc1 |
| 71 to 73 °C | Brc1cc(-c2ccccc2)on1 |
| 220 to 223 °C | Cc1cc(C(C)C)c(S(C)(=O)=O)cc1C(=O)N=C(N)N |
| 112 °C | CC(C)(C)OC(=O)NC(CF)CC(=O)O (stereo not given) |
| 156 to 157 °C | O=C1c2ccccc2C(Cc2ccnc(F)c2)(Cc2ccnc(F)c2)c2ccccc21 |
| 156 to 159 °C | CCCCNC(=O)NS(=O)(=O)Cc1ccccc1-c1nnc(SC)o1 |
| 106 to 108 °C | CC(C)(C)OC(=O)NCCOCCOCCNC(=O)CCCCC1SCC2NC(=O)NC21 (stereo not given) |
| 181 to 184 °C | Cc1cc(Cl)cc(COc2cccc(OCc3ccc4ccccc4n3)c2)c1OCc1nnn[nH]1 |

| melting point | SMILES |
| --- | --- |
| 88 to 90 °C | OC1C=C(c2ccc(C(F)(F)F)cc2)CN(Cc2ccccc2)C1 (stereo not given) |
| 185 to 187 °C | CCCN1CCN(Cc2ccc3c(c2)-c2[nH]nc(-c4ccsc4)c2C3)CC1 |
| 195 to 196 °C | CN(C1CCN(CCC(F)(F)F)CC1)S(=O)(=O)c1ccc(Nc2nccc(Nc3ccc(F)cc3)n2)cc1 |
| 149 to 151 °C | Cc1sc2ncc(C(O)C=Cc3ccccc3)n2c1C (stereo not given) |
| 52 to 54 °C | OCc1cccc(Nc2nc(Oc3ccccc3)nc(Oc3ccccc3Cl)n2)c1 |
| 102 to 104 °C | COc1cc(Oc2cccc(C(F)(F)F)c2)nc(C(=O)NC(OC)C(F)(F)F)c1 (stereo not given) |
| 183 to 185 °C | N#Cc1cnn2c1N(C(=O)CCCl)CC=C2c1cccc(C(F)(F)F)c1 |
| 264 to 267 °C | O=c1c2cccnc2n(-c2cccc(Cl)c2)c2ccsc12 |
| 212 to 213 °C | O=C(c1ccccc1)N1CCC2OC2C1 (stereo not given) |
| 147 to 149 °C | c1ccc2c(-n3cncn3)ccnc2c1 |
| 170 to 172 °C | COc1nc(C)nc(NC(=O)NS(=O)(=O)c2cccnc2OC2CCCC2)n1 |
| 176 to 179 °C | Cn1c(C(F)F)nn(-c2cc(O)c(Cl)cc2Cl)c1=O |
| 160 to 162 °C | COc1c(Cl)ccc(-c2cc(N)c(Cl)c(C(=O)NOCc3ccoc3)n2)c1F |
| 78 to 79 °C | CCCCCCCCCCCCCCCCNC(=O)NCCCN(C)C |
| 180 °C | c1ccc2c(c1)C[C@H]1CSC(=Nc3csc4cnccc34)N1C2 |
| 140 to 141 °C | CCOC(=O)Cc1ccc(-c2nc(COc3ccc(COc4nn(-c5ccccc5)cc4/C=C/c4cn(CC)cn4)cc3OC)c(C)o2)cc1 |
| 187 to 189 °C | O=C(c1ccccc1)N1CCc2[nH]c3cccc(-c4ccccc4OC4CCCC4)c3c2CC1 |
| 153 to 154 °C | CCOC(=O)c1sc(SC)c2c1CCc1sc(-c3ccccc3)nc1-2 |
| 185 to 186 °C | CC(C)Oc1n[nH]cc1C(=O)NCc1ccc(Cl)cc1Cl |
| 59 to 60 °C | CCCCCCCC(=O)c1ccc(CCOS(=O)(=O)c2ccc(C)cc2)cc1 |
| 122 to 124 °C | Fc1ccc(Oc2ccnc3cccnc23)cc1 |
| 217 °C | CCOC(=O)C1(CC(=O)O)C(=O)C=C(OCc2ccccc2)CC1c1ccc(C)cc1 (stereo not given) |
| 108 to 110 °C | CC1(C)CC(=NO)c2cc(F)ccc2O1 |

| melting point | SMILES |
| --- | --- |
| > 275 °C | N#Cc1cccc(-c2nc(Nc3ccc(C(=O)O)cc3)sc2-c2ccnnc2)c1 |
| 115 to 117 °C | Nc1cccc(OCCCN2CCC(c3noc4cc(F)ccc34)CC2)c1 |
| 255 °C | COc1cc(O)ccc1-c1nc2cnccc2[nH]1 |
| 119 to 120 °C | CCOC(=O)C1(c2ccccc2)CCN(c2ncccn2)CC1 |
| 200 °C | O=c1[nH]c2ccc(Cl)cc2c(=O)o1 |
| 39 to 54 °C | FC(F)(F)c1cc(Sc2ccc(Cl)cc2)c(-c2ccc(Cl)cc2)[nH]1 |
| 140 °C | CN1CCCN(Cc2c(Cl)ccc(C(=O)C3=C(Sc4ccccc4)CCCC3=O)c2Cl)C1=O |
| 102 °C | Oc1cccc(SCCCSc2ccc(Cl)cc2)c1 |
| 198 to 200 °C | COC(=O)CCCNC(=O)N1CCN(c2cc3c(cc2F)c(=O)c(C(=O)O)cn3C2CC2)CC1 |
| 204 to 205 °C | CC(=O)NC[C@H]1CN(c2ccc(-n3cc(-c4ccncc4)cn3)c(F)c2)C(=O)O1 |
| 136 to 137 °C | COc1cc2c(Nc3ccc(Cl)cc3F)ncnc2cc1OCCCNC(=O)OCC(C)C |
| 199 to 200 °C | CC(=O)Nc1nc(CCc2ccc(NC(=O)OC(C)(C)C)cc2)c(C(=O)Nc2ccccc2)s1 |
| 151 to 152 °C | CCc1cc(C(=O)c2ccccc2Cl)c(-n2c(C)nnc2CNC(=O)c2ccc(Cl)c(Cl)c2)s1 |
| 189 to 190 °C | ClCc1ccccc1-c1ccccc1-c1ccccc1CCl |
| 167 to 168 °C | O=C(O)Cc1nn(Cc2ccc(Br)cc2F)c2ccccc12 |
| 200 to 201 °C | COc1nc(NCCc2ccc(F)cc2)nc(-c2ccc(OC)c(S(=O)(=O)NC3CC3)c2)n1 |
| 136 to 138 °C | COc1nc(C)c(C)nc1NC(=S)N1CCN(c2cccc(Br)c2)CC1 |
| 109 °C | Cc1cc(-n2ccnc2)c2cccc(OCc3c(Cl)ccc(S(=O)(=O)N4CCC[C@H]4C(=O)NCC4CCN(C(=O)c5cccnc5)CC4)c3Cl)c2n1 |
| 193 to 194 °C | O=C1c2cc(Br)ccc2COc2ccc(Br)cc21 |
| 90 to 93 °C | C#CC1(OCc2cc(F)ccc2F)CCN(C(C)=O)CC1 |
| 110 to 111 °C | CC(C)CC(C(=O)O)c1cc(OCC2CC2)c(-c2ccc(C(F)(F)F)cc2)cc1F (stereo not given) |

| SMILES | melting point |
| --- | --- |
| CN1C(=O)COc2c1cc(Cl)c([N+](=O)[O-])c2C(=O)O | 257 °C |
| Cc1cc(Cl)cc(C(=O)NC(C)C)c1NC(=O)c1cc(C(F)(F)F)nn1-c1ncccc1Cl | 195 to 196 °C |
| COc1cc2c(cc1C(C)(C)C)CCC2Cc1c[nH]cn1 (stereo not given) | 174 to 184 °C |
